Literature values as cited in patent US6605304B1, “Silicate-containing powders providing controlled, sustained gas release” (Bernard Technologies, Inc., priority 1998, dated 2003).

Legend:
[1] = test system: mold spores, bacteria and other microbiological contaminants

Row | SMILES | concentration that penetrates and destroys contaminants [1] | chromosomal aberrations or micronuclei in the bone marrow (mice; mice, subchronic and acute oral administration) | mutagenic potential (mice; mouse, in vivo, po)
1 | [O][Cl+][O-] [chlorine dioxide] | below one | failed to induce any chromosomal aberrations or increased numbers of micronuclei | –
2 | OCl [hypochlorite] | – | – | weak positive effect
